According to patent publication US11453660B2, “Androgen receptor and glucocorticoid receptor modulators” (ONCOSTELLAE, S.L., priority 2017, dated 2022):
pIC50: −log10 of the molar value.

What follows are compounds tested against T1, human androgen receptor (Homo sapiens, UniProt P10275, T878A) (assay: Human Androgen Receptor Binding (radioligand binding, LnCap prostate cancer cell line)). Details: LnCap cells, displacement of [^3H]-methyltrienolone, 2 hours at 37° C.; read-out: AR LNCaP.
T1 construct: endogenously expressed human androgen receptor using the LnCap prostate cancer cell line; endogenous in cells; host or cells: LNCaP prostate cancer cell line (whole cells)
T1 sequence (P10275 1-920 T878A): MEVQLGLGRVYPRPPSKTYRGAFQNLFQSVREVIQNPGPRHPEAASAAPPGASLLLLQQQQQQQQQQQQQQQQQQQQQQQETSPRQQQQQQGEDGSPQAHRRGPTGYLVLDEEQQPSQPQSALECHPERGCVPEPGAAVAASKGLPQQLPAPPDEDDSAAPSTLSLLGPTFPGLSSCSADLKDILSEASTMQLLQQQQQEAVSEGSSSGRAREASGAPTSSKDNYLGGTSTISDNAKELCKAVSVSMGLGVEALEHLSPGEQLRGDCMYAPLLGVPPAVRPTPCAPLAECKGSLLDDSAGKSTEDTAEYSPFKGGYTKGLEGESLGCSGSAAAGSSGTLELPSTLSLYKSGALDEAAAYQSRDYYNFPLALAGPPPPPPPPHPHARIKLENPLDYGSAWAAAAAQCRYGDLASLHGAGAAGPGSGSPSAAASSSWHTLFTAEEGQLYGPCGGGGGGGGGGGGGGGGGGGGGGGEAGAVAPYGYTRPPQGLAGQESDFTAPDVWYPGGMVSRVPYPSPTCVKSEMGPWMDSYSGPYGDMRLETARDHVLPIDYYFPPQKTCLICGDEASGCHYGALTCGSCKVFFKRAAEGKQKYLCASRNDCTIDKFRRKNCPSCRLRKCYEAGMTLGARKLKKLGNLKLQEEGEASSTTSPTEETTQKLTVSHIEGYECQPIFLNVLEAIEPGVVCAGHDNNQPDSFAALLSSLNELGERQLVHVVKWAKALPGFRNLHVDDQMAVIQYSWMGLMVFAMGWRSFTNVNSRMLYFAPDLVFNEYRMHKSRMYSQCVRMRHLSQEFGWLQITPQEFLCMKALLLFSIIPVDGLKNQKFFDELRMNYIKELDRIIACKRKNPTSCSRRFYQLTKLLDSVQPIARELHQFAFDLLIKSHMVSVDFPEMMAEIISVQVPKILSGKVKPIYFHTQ
Experimental: Human Androgen Receptor Binding
Radioligand binding studies were carried out on endogenously expressed human androgen receptor using the LnCap prostate cancer cell line. The test is based on measuring radioactively labelled AR ligand [^3H]-methyltrienolone that gets displaced by increasing concentrations of test compound. The test is performed in 96-well plates (Falcon, #353072). Positive and negative controls are also required in each analyzed plate to evaluate the total and non-specific binding binding of the radioligand to the receptor. Cells (60000 per well) were incubated for 24 hours before executing the experiment at 37° C. and in a 5% CO2 atmosphere. Medium was replaced by assay buffer (RPMI-640 (ATCC #30-2001) supplemented with 0.1% bovine serum albumin (Sigma #8806-56) and Triamcinolone acetonide (Sigma #T6501)). The compounds at the desired concentrations and [^3H]methyltrienolone (Perkin Elmer #NET590) were added to the wells.
In order to obtain a dose-response curve and calculate the potency of inhibition (expressed as IC50) for AR, a series of 1:10 dilutions in test in 1× buffer from 10 μM to 0.1 nM for each compound was carried out.
Cells were incubated for 2 hours at 37° C. in a 5% CO2 atmosphere and then washed twice with ice-cold HBSS. Then cells were lysed with solubilization buffer (Hank's Balanced Salt Solution (HBSS, Sigma #H6648), 0.5% Sodium dodecyl sulfate 0.5% (SDS, Sigma #L7390-500G, Lote: 078K0102) and 20% Glycerol (Sigma Aldrich, #G2025) for 30 minutes at RT. 75 μL aliquots were taken from each well and transferred to a 96-well flexiplate (Perkin Elmer #1450-401) and mixed with 100 μL of scintillation cocktail (Optiphase supermix, PerkinElmer, #1200-439). Plates are shaken for 60 minutes and radioactivity was measured in a beta scintillation counter (Microbeta Trilux, Perkin Elmer).

Row | pIC50 | Structure (SMILES)
1 | ≤ 6.00 | CC(=O)C1=C(C)NC(C)=C(C(=O)OCC2CC2)C1c1csc2ccc(Cl)cc12 (stereo not drawn) [Example C32, Cyclopropylmethyl 5-acetyl-4-(5-chlorobenzo[b]thiophen-3-yl)-2,6-dimethyl-1,4-dihydropyridine-3-carboxylate]
2 | ≤ 6.00 | CC(=O)C1=C(C)NC(C)=C(C(=O)OCC2CCCCC2)C1c1csc2ncccc12 (stereo not drawn) [Example C34, Cyclohexylmethyl 5-acetyl-2,6-dimethyl-4-(thieno[2,3-b]pyridin-3-yl)-1,4-dihydropyridine-3-carboxylate]
3 | > 7.00 | CC(=O)C1=C(C)NC(C)=C(C(=O)OC2CCCC2)C1c1csc2ncccc12 (stereo not drawn) [Example C37, Cyclopentyl 5-acetyl-2,6-dimethyl-4-(thieno[2,3-b]pyridin-3-yl)-1,4-dihydropyridine-3-carboxylate]
4 | > 7.00 | COC(=O)C1=C(C(F)(F)F)NC(C)=C(C(C)=O)C1c1csc2ccc(Cl)cc12 (stereo not drawn) [Example C38, Methyl 5-acetyl-4-(5-chlorobenzo[b]thiophen-3-yl)-6-methyl-2-(trifluoromethyl)-1,4-dihydropyridine-3-carboxylate]
5 | ≤ 6.00 | CC(=O)C1=C(C)NC(C(F)(F)F)=C(C(=O)OCc2ccccc2)C1c1csc2ccccc12 (stereo not drawn) [Example C45, Benzyl 5-acetyl-4-(benzo[b]thiophen-3-yl)-6-methyl-2-(trifluoromethyl)-1,4-dihydropyridine-3-carboxylate]
6 | 6.00 to 7.00 | CC(=O)C1=C(C)NC(C)=C(C(=O)OCc2ccc(F)cc2)C1c1csc2ncccc12 (stereo not drawn) [Example C47, 4-Fluorobenzyl 5-acetyl-2,6-dimethyl-4-(thieno[2,3-b]pyridin-3-yl)-1,4-dihydropyridine-3-carboxylate]
7 | > 7.00 | COC(=O)C1=C(C(F)(F)F)NC(C)=C(C(C)=O)C1c1csc2ncccc12 (stereo not drawn) [Example C53, Methyl 5-acetyl-6-methyl-4-(thieno[2,3-b]pyridin-3-yl)-2-(trifluoromethyl)-1,4-dihydropyridine-3-carboxylate]
8 | 6.00 to 7.00 | COC(=O)C1=C(C2CC2)NC(C)=C(C(C)=O)C1c1csc2ccc(Cl)cc12 (stereo not drawn) [Example J25, Methyl 5-acetyl-4-(5-chlorobenzo[b]thiophen-3-yl)-2-cyclopropyl-6-methyl-1,4-dihydropyridine-3-carboxylate]
9 | 6.00 to 7.00 | COC(=O)C1=C(C2CC2)NC(C)=C(C(C)=O)C1c1csc2c(C(=O)OC)cccc12 (stereo not drawn) [Example J29, Methyl 5-acetyl-2-cyclopropyl-4-(7-(methoxycarbonyl)benzo[b]thiophen-3-yl)-6-methyl-1,4-dihydropyridine-3-carboxylate]
10 | ≤ 6.00 | COC(=O)C1=C(C2CC2)NC(C)=C(C(C)=O)C1c1csc2c(C(=O)O)cccc12 (stereo not drawn) [Example J30, 3-(3-Acetyl-6-cyclopropyl-5-(methoxycarbonyl)-2-methyl-1,4-dihydropyridin-4-yl)benzo[b]thiophene-7-carboxylicacid]
11 | ≤ 6.00 | CC(=O)C1=C(C)NC(C)=C(C(C)=O)C1c1csc2c(C#N)cccc12 [Example J40, 3-(3,5-diacetyl-2,6-dimethyl-1,4-dihydropyridin-4-yl)benzo[b]thiophene-7-carbonitrile]

What follows are compounds tested against T2, Human Glucocorticoid Receptor (Homo sapiens, UniProt P04150) (assay: Competition Binding in IM-9 Human Glucocorticoid Receptor (GR IM-9)). Details: cytosol from IM-9 cell line, 1.5 nM [3H]-Dexamethasone, 4° C. for 6 hours.
T2 construct: endogenous in cells; host or cells: cytosol from IM-9 cell line
T2 sequence (P04150 1-777): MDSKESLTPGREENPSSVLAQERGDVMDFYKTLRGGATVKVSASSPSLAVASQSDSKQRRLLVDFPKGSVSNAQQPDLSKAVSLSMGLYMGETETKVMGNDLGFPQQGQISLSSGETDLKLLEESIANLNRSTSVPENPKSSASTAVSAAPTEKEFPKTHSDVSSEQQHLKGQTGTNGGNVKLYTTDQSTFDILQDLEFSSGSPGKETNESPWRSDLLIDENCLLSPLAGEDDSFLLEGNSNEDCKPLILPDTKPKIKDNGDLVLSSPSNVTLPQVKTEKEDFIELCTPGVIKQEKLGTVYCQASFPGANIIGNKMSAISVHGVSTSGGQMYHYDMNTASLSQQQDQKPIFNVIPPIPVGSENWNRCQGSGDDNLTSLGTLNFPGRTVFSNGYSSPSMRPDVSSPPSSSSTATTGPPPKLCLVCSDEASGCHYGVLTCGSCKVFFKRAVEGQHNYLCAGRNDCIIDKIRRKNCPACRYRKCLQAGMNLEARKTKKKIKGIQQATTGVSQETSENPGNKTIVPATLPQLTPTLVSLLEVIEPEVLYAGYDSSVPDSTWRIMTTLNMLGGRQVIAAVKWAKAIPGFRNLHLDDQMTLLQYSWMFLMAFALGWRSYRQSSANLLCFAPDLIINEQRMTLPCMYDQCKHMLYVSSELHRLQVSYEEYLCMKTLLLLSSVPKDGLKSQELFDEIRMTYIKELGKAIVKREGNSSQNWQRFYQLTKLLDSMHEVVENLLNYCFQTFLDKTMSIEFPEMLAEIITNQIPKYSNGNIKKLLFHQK
Experimental: Competition Binding in IM-9 Human Glucocorticoid Receptor (GR IM-9)
Glucocorticoid receptor competition binding assays were carried out in a polypropilene 96-well plate. In each well was incubated 100 μg of cytosol from IM-9 cell line, 1.5 nM [3H]-Dexamethasone (71 Ci/mmol, 1 mCi/ml, Perkin Elmer NET1192001MC) and compounds studied and standard. Non-specific binding was determined in the presence of Triamcinolone 10 μM (Sigma Aldrich T6376).
The reaction mixture (Vt: 200 μl/well) was incubated at 4° C. for 6 hours, 180 μL was transferred to GF/B 96-well plate (Millipore, Madrid, Spain) pretreated with 0.5% of PEI and treated with binding buffer (TES 10 mM, sodium molybdate 10 mM, EDTA 1 mM, pH 7.4, 2-mercaptoethanol 20 mM, Glycerol 10%) after was filtered and washed six times with 250 μl wash buffer (TES 10 mM, sodium molybdate 10 mM, EDTA 1 mM, pH 7.4, 2-mercaptoethanol 20 mM Glycerol 10%), before measuring in a microplate beta scintillation counter (Microbeta Trilux, PerkinElmer, Madrid, Spain).

Row | pIC50 | Structure (SMILES)
12 | > 7.00 | CC(=O)C1=C(C)NC(C)=C(C(=O)OCC2CCCCC2)C1c1csc2ncccc12 (stereo not drawn) [Example C34, Cyclohexylmethyl 5-acetyl-2,6-dimethyl-4-(thieno[2,3-b]pyridin-3-yl)-1,4-dihydropyridine-3-carboxylate]
13 | > 7.00 | CC(=O)C1=C(C)NC(C)=C(C(=O)OC2CCCC2)C1c1csc2ncccc12 (stereo not drawn) [Example C37, Cyclopentyl 5-acetyl-2,6-dimethyl-4-(thieno[2,3-b]pyridin-3-yl)-1,4-dihydropyridine-3-carboxylate]
14 | > 7.00 | CC(=O)C1=C(C)NC(C)=C(C(=O)OCc2ccc(F)cc2)C1c1csc2ncccc12 (stereo not drawn) [Example C47, 4-Fluorobenzyl 5-acetyl-2,6-dimethyl-4-(thieno[2,3-b]pyridin-3-yl)-1,4-dihydropyridine-3-carboxylate]
15 | 6.00 to 7.00 | COC(=O)C1=C(C2CC2)NC(C2CC2)=C(C(=O)OC)C1c1csc2ccc(Cl)cc12 [Example J25-a, Dimethyl 4-(5-chlorobenzo[b]thiophen-3-yl)-2,6-dicyclopropyl-1,4-dihydropyridine-3,5-dicarboxylate]
16 | ≤ 6.00 | CC(=O)C1=C(C)NC(C2CC2)=C(C(=O)OCc2ccncc2)C1c1csc2ncccc12 (stereo not drawn) [Example J36, Pyridin-4-ylmethyl 5-acetyl-2-cyclopropyl-6-methyl-4-(thieno[2,3-b]pyridin-3-yl)-1,4-dihydropyridine-3-carboxylate]
17 | 6.00 to 7.00 | O=C(OCc1ccc(F)cc1)C1=C(C2CC2)NC(C2CC2)=C(C(=O)OCc2ccc(F)cc2)C1c1csc2ncccc12 [Example J42-a, bis(4-fluorobenzyl) 2,6-dicyclopropyl-4-(thieno[2,3-b]pyridin-3-yl)-1,4-dihydropyridine-3,5-dicarboxylate]
18 | 6.00 to 7.00 | CC(=O)C1=C(C)NC(C)=C(C(=O)OCc2ccnc(-c3ccncc3)c2)C1c1csc2ncccc12 (stereo not drawn) [Example L12, [2,4′-bipyridin]-4-ylmethyl 5-acetyl-2,6-dimethyl-4-(thieno[2,3-b]pyridin-3-yl)-1,4-dihydropyridine-3-carboxylate]
19 | 6.00 to 7.00 | COC(=O)C1=C(C2CC2)NC(C)=C(C(C)=O)C1c1csc2c(-c3ccncc3)cccc12 (stereo not drawn) [Example L13, Methyl 5-acetyl-2-cyclopropyl-6-methyl-4-(7-(pyridin-4-yl)benzo[b]thiophen-3-yl)-1,4-dihydropyridine-3-carboxylate]
20 | ≤ 6.00 | COC(=O)C1=C(C2CC2)NC(C)=C(C(C)=O)C1c1csc2c(C3CC3)cccc12 (stereo not drawn) [Example L14, Methyl 5-acetyl-2-cyclopropyl-4-(7-cyclopropylbenzo[b]thiophen-3-yl)-6-methyl-1,4-dihydropyridine-3-carboxylate]
21 | ≤ 6.00 | COC(=O)C1=C(C2CC2)NC(C)=C(C(C)=O)C1c1csc2c(-c3ccccc3)cccc12 (stereo not drawn) [Example N1, Methyl 5-acetyl-2-cyclopropyl-6-methyl-4-(7-phenylbenzo[b]thiophen-3-yl)-1,4-dihydropyridine-3-carboxylate]
